{
  "source": "patent US11452718B2",
  "about": "(AVALYN PHARMA INC., priority 2012, dated 2022)",
  "key": {"[1]": {"test": "Pharmacokinetics and tissue distribution (lung, plasma, heart, kidney) of co-solvent formulations, bolus intratracheal aerosol", "assay_type": "in vivo, Sprague-Dawley rats", "details": "for concentration at 4 min / concentration at 0.1 h / concentration at 0.167 h / concentration at 0.333 h: Sprague-Dawley, rat, lung, other: intratracheal bolus aerosol (nebulizing catheter), 4 mg/kg, about 4 mg/kg pirfenidone IT bolus aerosol, read-out: Analyte in lung tissue, Mean; for concentration at 4 min: 0.0667 hr", "method": "Selected formulations were prepared for pharmacokinetic analysis following aerosol delivery to rat lung. […] Formulations prepared for this study are outlined in Table 9. […] The sample was agitated until completely dissolved. […] Filtered samples were analyzed by HPLC."}, "[2]": {"test": "Extended-duration intratracheal and oral pharmacokinetic study", "assay_type": "in vivo, Wistar rats", "method": "Previous intratracheal aerosol delivery (see Example 6) was performed as a single bolus instillation just above the first bifurcation of the lung. For in vivo efficacy studies, an attempt was made to mimic tidal inhaled breathing by splitting the dose into equal parts and administering as before, but over a 2 minute period. […] Doses were prepared in 0.45% sodium chloride solution and were administered as described in Table 21.\nPlasma samples and entire lungs were taken at pre-dose, 2, 4, 6, 10, 30, 60 and 120 minutes post dosing. Materials were extracted and pirfenidone quantitated as mcg/mL plasma and μg/gram lung tissue."}, "[3]": {"test": "Bleomycin model of pulmonary fibrosis: right lung hydroxyproline content, left lung fibrosis score", "assay_type": "in vivo, Wistar rats", "details": "Wistar, rat, plasma, read-out: Plasma AUCO-2 hrs", "method": "(§1) To compare anti-fibrotic efficacy between extended-duration intratracheal, direct-lung aerosol administration and oral gavage, the bleomycin model of pulmonary fibrosis was performed. Doses for this study were selected based upon pharmacokinetic parameters obtained in Table 22 (from Example 8). Briefly, Wistar rats (175-225 grams) were administered bleomycin by the intratracheal route using a Penn Century MicroSprayer® catheter. On the seventh day following bleomycin exposure, animals initiated treatment with either saline or pirfenidone. Animals were dosed once a day on days 7 through 28, and euthanized on day 29. Pirfenidone was administered either intratracheally using Penn Century MicroSprayer catheter or by oral gavage. Sham and bleomycin control groups received either no treatment or intratracheal saline by Penn Century MicroSprayer catheter. While dosing more frequently (or less frequently) may improve the observed effects, anesthesia required for intratracheal administration reduced animal weight gain (reduced food intake) and, thus limited dosing to once a day for this study. Because anesthesia reduced weight gain, all study animals (intratracheal, oral and control) received once-a-day isoflurane using the same technique and duration. Twelve animals were enrolled into each dosing group. […] Oral gavage was administered in a single 300 mcL volume. Due to technical restrictions, instead of the mg/kg dose being equally split between six 50 mcL administrations over 2 minutes, intratracheal administration was performed with three equal 50 mcL volumes administered every 40 seconds over the same period. For dose selection, data from Table 22 was extrapolated. On day 29, animals were euthanized. Right lungs were extracted and measured for hydroxyproline content, while left lungs were subjected to histology. Histological sections were stained with picrosirius red and scored for lung tissue fibrosis. Twenty random photographs of each stained lung tissue section were taken, blinded and scored by an independent review panel. Observations were pooled for analysis. […] Doses selected for this study targeted critical pharmacokinetic parameters from the comparator oral route (matching lung tissue Cmax or plasma AUC). These targets were selected from a pharmacokinetic study wherein lung tissue and plasma were collected and pirfenidone levels were compared. In these studies, lung tissue Cmax following intratracheal administration was always the first collected time point. It is important to consider that the duration of time required to collect this first lung tissue may not accurately capture the true lung Cmax. […] It was this pharmacokinetic point that the above Cmax for dosing was selected. If it was possible to collect lung tissue earlier, the Cmax may be higher. As the Penn Century MicroSprayer catheter delivers nearly the entire loaded dose, the possible delivered Cmax in these studies may be higher. […] In this study, we divided the dose into thirds."}, "[4]": {"tested_on": "bleomycin model of pulmonary fibrosis", "test": "Bleomycin model of pulmonary fibrosis: right lung hydroxyproline content, left lung fibrosis score", "assay_type": "in vivo, Wistar rats", "details": "for Average Hydroxyproline, difference from bleomycin control: sham-subtracted", "method": "as §1"}, "[5]": {"test": "Aqueous formulation observations: solubility, salt addition, taste, dissolution time", "assay_type": "physicochemical", "method": "However, at this (and lower) concentration it was determined that salt addition was required to improve acute tolerability upon inhalation of a nebulized solution (otherwise a hypotonic solution). To address tonicity, NaCl or MgCl2 were added. […] This effect was not observed at ˜pH 8."}, "[6]": {"details": "intratracheal aerosol 2.5 mg/kg, extended-duration (2 minutes)"}, "[7]": {"details": "intratracheal aerosol 5 mg/kg, extended-duration (2 minutes)"}, "[8]": {"details": "intratracheal aerosol 10 mg/kg, extended-duration (2 minutes)"}},
  "note": "Where two headings read alike, the source gives them in different places.",
  "data": [
    {"smiles": "Cc1ccc(=O)n(-c2ccccc2)c1", "note": "[pirfenidone, 5-methyl-1-phenyl-2-(1H)-pyridone]", "values": [
      {"measurement": "concentration at 4 min", "setting": "[1]; Group 1", "result": 10400, "unit": "ng/g"},
      {"measurement": "concentration at 0.1 h", "setting": "[1]; Group 1", "result": 7530, "unit": "ng/g"},
      {"measurement": "concentration at 0.167 h", "setting": "[1]; Group 1", "result": 5360, "unit": "ng/g"},
      {"measurement": "concentration at 0.333 h", "setting": "[1]; Group 1", "result": 4150, "unit": "ng/g"},
      {"measurement": "concentration at 4 min", "setting": "[1]; Group 2", "result": 8530, "unit": "ng/g"},
      {"measurement": "concentration at 0.1 h", "setting": "[1]; Group 2", "result": 5980, "unit": "ng/g"},
      {"measurement": "concentration at 0.167 h", "setting": "[1]; Group 2", "result": 5710, "unit": "ng/g"},
      {"measurement": "concentration at 0.333 h", "setting": "[1]; Group 2", "result": 3790, "unit": "ng/g"},
      {"measurement": "concentration at 4 min", "setting": "[1]; Group 3", "result": 17300, "unit": "ng/g"},
      {"measurement": "concentration at 0.1 h", "setting": "[1]; Group 3", "result": 7340, "unit": "ng/g"},
      {"measurement": "concentration at 0.167 h", "setting": "[1]; Group 3", "result": 6160, "unit": "ng/g"},
      {"measurement": "concentration at 4 min", "setting": "[1]; Group 4", "result": 7770, "unit": "ng/g"},
      {"measurement": "concentration at 0.1 h", "setting": "[1]; Group 4", "result": 7500, "unit": "ng/g"},
      {"measurement": "concentration at 0.167 h", "setting": "[1]; Group 4", "result": 5230, "unit": "ng/g"},
      {"measurement": "concentration at 4 min", "setting": "[1]; Group 5", "result": 10700, "unit": "ng/g"},
      {"measurement": "concentration at 0.1 h", "setting": "[1]; Group 5", "result": 5830, "unit": "ng/g"},
      {"measurement": "concentration at 0.167 h", "setting": "[1]; Group 5", "result": 8780, "unit": "ng/g"},
      {"measurement": "concentration at 4 min", "setting": "[1]; Group 6", "result": 7930, "unit": "ng/g"},
      {"measurement": "concentration at 0.1 h", "setting": "[1]; Group 6", "result": 6830, "unit": "ng/g"},
      {"measurement": "concentration at 0.167 h", "setting": "[1]; Group 6", "result": 5170, "unit": "ng/g"},
      {"measurement": "adverse events", "setting": "[1]; about 4 mg/kg intratracheal aerosol, co-solvent formulations", "result": "No adverse events were noted"},
      {"measurement": "adverse events", "setting": "[2]; extended-duration intratracheal aerosol or oral gavage", "result": "No adverse events were noted"},
      {"measurement": "Lung Tissue AUC(0-2 hr)", "setting": "[2]; [6]", "result": 3.5, "unit": "µg·h/g"},
      {"measurement": "Lung Tissue Cmax", "setting": "[2]; [6]", "result": 14.4, "unit": "μg/gram"},
      {"measurement": "Lung Tissue AUC(0-2 hr)", "setting": "[2]; [7]", "result": 6.6, "unit": "µg·h/g"},
      {"measurement": "Lung Tissue Cmax", "setting": "[2]; [7]", "result": 27.9, "unit": "μg/gram"},
      {"measurement": "Lung Tissue AUC(0-2 hr)", "setting": "[2]; [8]", "result": 14.5, "unit": "µg·h/g"},
      {"measurement": "Lung Tissue Cmax", "setting": "[2]; [8]", "result": 61.1, "unit": "μg/gram"},
      {"measurement": "Lung Tissue AUC(0-2 hr)", "setting": "[2]; oral gavage 10 mg/kg", "result": 4.9, "unit": "µg·h/g"},
      {"measurement": "Lung Tissue Cmax", "setting": "[2]; oral gavage 10 mg/kg", "result": 3.5, "unit": "μg/gram"},
      {"measurement": "Lung Tissue AUC(0-2 hr)", "setting": "[2]; oral gavage 30 mg/kg", "result": 13.5, "unit": "µg·h/g"},
      {"measurement": "Lung Tissue Cmax", "setting": "[2]; oral gavage 30 mg/kg", "result": 9.8, "unit": "μg/gram"},
      {"measurement": "Lung Tissue AUC(0-2 hr)", "setting": "[2]; oral gavage 100 mg/kg", "result": 27.9, "unit": "µg·h/g"},
      {"measurement": "Lung Tissue Cmax", "setting": "[2]; oral gavage 100 mg/kg", "result": 33.6, "unit": "μg/gram"},
      {"measurement": "AUC", "setting": "[3]; inhaled or intranasal, Bleomycin + IT 0.9 mg/kg", "result": 3000, "unit": "ng·h/mL"},
      {"measurement": "AUC", "setting": "[3]; inhaled or intranasal, Bleomycin + IT 3.0 mg/kg", "result": 7700, "unit": "ng·h/mL"},
      {"measurement": "AUC", "setting": "[3]; inhaled or intranasal, Bleomycin + IT 6.4 mg/kg", "result": 16500, "unit": "ng·h/mL"},
      {"measurement": "AUC", "setting": "[3]; Bleomycin + PO 30 mg/kg", "result": 16600, "unit": "ng·h/mL"},
      {"measurement": "AUC", "setting": "[3]; Bleomycin + PO 100 mg/kg", "result": 29600, "unit": "ng·h/mL"},
      {"measurement": "possible lung tissue Cmax", "setting": "[4]; 0.9 mg/kg intratracheal dose divided into thirds", "result": "about 50 mcg/gram lung tissue"},
      {"measurement": "possible lung tissue Cmax", "setting": "[4]; 0.9 mg/kg intratracheal dose to a 250 gram rat, lung about 1.5 grams, whole dose", "result": "≤ 150", "unit": "mcg/gram"},
      {"measurement": "anti-fibrotic efficacy", "setting": "[4]; 3.0 mg/kg intratracheal, direct lung aerosol rat dose", "result": "no observed pirfenidone efficacy"},
      {"measurement": "Lung Tissue AUC0-2 hrs", "setting": "[4]; Bleomycin + IT 0.9 mg/kg", "result": 2.6, "unit": "µg·h/g"},
      {"measurement": "Lung Tissue Cmax", "setting": "[4]; Bleomycin + IT 0.9 mg/kg", "result": 11.6, "unit": "µg/g"},
      {"measurement": "Average Hydroxyproline, difference from bleomycin control", "setting": "[4]; Bleomycin + IT 0.9 mg/kg", "result": "−0.70*, **** mg/rightlung"},
      {"measurement": "Lung Tissue AUC0-2 hrs", "setting": "[4]; Bleomycin + IT 3.0 mg/kg", "result": 7.3, "unit": "µg·h/g"},
      {"measurement": "Lung Tissue Cmax", "setting": "[4]; Bleomycin + IT 3.0 mg/kg", "result": 33.5, "unit": "µg/g"},
      {"measurement": "Average Hydroxyproline, difference from bleomycin control", "setting": "[4]; Bleomycin + IT 3.0 mg/kg", "result": "−0.02**, **** mg/rightlung"},
      {"measurement": "Lung Tissue AUC0-2 hrs", "setting": "[4]; Bleomycin + IT 6.4 mg/kg", "result": 15.5, "unit": "µg·h/g"},
      {"measurement": "Lung Tissue Cmax", "setting": "[4]; Bleomycin + IT 6.4 mg/kg", "result": 71.5, "unit": "µg/g"},
      {"measurement": "Average Hydroxyproline, right lung", "setting": "[4]; Bleomycin + IT 6.4 mg/kg once a day, days 7 through 28", "result": 3.50, "unit": "mg/right lung"},
      {"measurement": "Average Hydroxyproline, difference from bleomycin control", "setting": "[4]; Bleomycin + IT 6.4 mg/kg", "result": "−0.08***, **** mg/rightlung"},
      {"measurement": "Lung Tissue AUC0-2 hrs", "setting": "[4]; Bleomycin + PO 30 mg/kg", "result": 18.2, "unit": "µg·h/g"},
      {"measurement": "Lung Tissue Cmax", "setting": "[4]; Bleomycin + PO 30 mg/kg", "result": 11.8, "unit": "µg/g"},
      {"measurement": "Lung Tissue AUC0-2 hrs", "setting": "[4]; Bleomycin + PO 100 mg/kg", "result": 34.4, "unit": "µg·h/g"},
      {"measurement": "Lung Tissue Cmax", "setting": "[4]; Bleomycin + PO 100 mg/kg", "result": 33.6, "unit": "µg/g"},
      {"measurement": "anti-fibrotic efficacy, direct lung delivery versus oral", "setting": "[4]; intratracheal aerosol versus oral gavage", "result": "more efficacious (less fibrosis and less hydroxyproline)"},
      {"measurement": "formulation stability on addition of MgCl2", "setting": "[5]; MgCl2 added, 1:1 and 1:2 mole ratios magnesium to pirfenidone", "result": "maintained a stable, soluble solution"},
      {"measurement": "formulation stability on addition of NaCl", "setting": "[5]; NaCl added to address tonicity, ambient storage", "result": "destabilized the formulation and resulted in precipitation upon ambient storage"},
      {"measurement": "acute tolerability upon inhalation of a nebulized solution", "setting": "[5]; addition of NaCl", "result": "improved acute tolerability"},
      {"measurement": "solubility", "setting": "[5]; aqueous solution, aqueous buffer, across a pH range of about 4.0 to about 8.0", "result": 17, "unit": "mg/mL"}
    ]}
  ]
}
